{"source": "paper PMC3503319", "about": "(Biochemistry, 2010)", "target": "Mtb DTBS (BioD) (Mycobacterium tuberculosis, UniProt P9WPQ5)", "sequence (P9WPQ5 whole entry)": "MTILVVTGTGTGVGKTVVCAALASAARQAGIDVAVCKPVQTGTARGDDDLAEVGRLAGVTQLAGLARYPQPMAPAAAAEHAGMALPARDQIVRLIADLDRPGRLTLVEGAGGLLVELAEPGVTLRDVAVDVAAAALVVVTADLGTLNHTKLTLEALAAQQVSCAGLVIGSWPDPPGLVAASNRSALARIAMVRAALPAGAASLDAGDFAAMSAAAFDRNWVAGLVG", "data": [{"smiles": "C[C@H](N)[C@@H](CCCCCC(=O)O)NC(=O)O", "note": "[DAPA-carbamate]", "values": [{"measurement": "X-ray crystal structure, 2.05 Å (crystal soaked in 10 mM DAPA)", "value": "additional electron density attached to the N7 atom of DAPA that fits the carbon dioxide"}]}]}
